# Earlier results as cited in paper PMC6311893, “Computational prediction of plasma protein binding of cyclic peptides from small molecule experimental data using sparse modeling techniques” (BMC Bioinformatics, 2018).
# Structures can show the parent of a compound that is named as a salt.
# System: plasma protein
# Details: cited from earlier work
row,Compound,PPB (fb)
1,Nc1ccc(C(=O)O)c(O)c1 [4-aminosalicylic acid],0.62
2,C=C1/C(=C\C=C2/CCC[C@]3(C)[C@@H]([C@H](C)CCCC(C)(C)O)CC[C@@H]23)C[C@@H](O)C[C@@H]1O [calcitriol],0.95

# Same assay, conditions: fraction bound to plasma protein; small molecule dataset, sheet 1-SM (Set Dte = test, Dtr = training); ref Ingle et al.; cited from earlier work
row,Compound,PPB (fb)
1,O=C(OCCN1CCCCCC1)C(c1ccsc1)C1CCCCC1 (stereo not shown) [Cetiedil],0.74
2,CC1(C)SC2C(NC(=O)c3cccc4ccccc34)C(=O)N2C1C(=O)O (stereo not shown) [penicillin64],0.86
3,CCN1CCCC1CNC(=O)c1cc(S(=O)(=O)CC)c(N)cc1OC (stereo not shown) [amisulpride],0.16
4,O=C(O)[C@@H]1C[C@@H](C2CCCCC2)CN1C(=O)CP(=O)(O)CCCCc1ccccc1 [Fosinoprilat],0.99
5,CC(=O)c1ccc(S(=O)(=O)NC(=O)NC2CCCCC2)cc1 [acetohexamide],0.96
6,C[C@@H](NCCCc1cccc(C(F)(F)F)c1)c1cccc2ccccc12 [Cinacalcet hydrochloride],0.95
7,N=C(N)N1CCc2ccccc2C1 [debrisoquine],0.85
8,CCCCCN(C)CCC(O)(P(=O)(O)O)P(=O)(O)O [Ibandronic Acid (Ibandronate)],0.85
9,CO/N=C(\C(=O)N[C@@H]1C(=O)N2C(C(=O)OCOC(=O)C(C)(C)C)=C(/C=C\c3scnc3C)CS[C@H]12)c1csc(N)n1 [cefditoren-pivoxil],0.88
10,CC(=O)Nc1ccc(/C=N/NC(N)=S)cc1 [amithiozone],0.95
11,OC(CNCC(O)C1CCc2cc(F)ccc2O1)C1CCc2cc(F)ccc2O1 (stereo not shown) [nebivolol],0.98
12,O=C(O)c1cn(-c2cccc([N+](=O)[O-])c2)c2cc(N3CCNCC3)c(F)cc2c1=O [7b(m-NO2)],0.66
13,CC(C)C[C@H]1C(=O)N2CCC[C@H]2[C@]2(O)O[C@](NC(=O)[C@@H]3C=C4c5cccc6[nH]c(Br)c(c56)C[C@H]4N(C)C3)(C(C)C)C(=O)N12 [bromocriptine],0.95
14,Cc1onc(-c2ccccc2Cl)c1C(=O)N[C@@H]1C(=O)N2[C@@H]1SC(C)(C)[C@@H]2C(=O)O [cloxacillin],0.95
15,N[C@@H]1CON=C1O [cycloserine],0.2
16,C[C@]12C=CC(=O)C=C1C(Cl)=C[C@@H]1[C@@H]2[C@@H](O)C[C@@]2(C)[C@H]1CC[C@]2(O)C(=O)CO [cloprednol],0.8
17,C=CCNc1nc(NCC=C)nc(N2CCN(C(c3ccc(F)cc3)c3ccc(F)cc3)CC2)n1 [almitrine],0.99
18,CC(=O)N1CCN(c2ccc(OCC3COC(Cn4ccnc4)(c4ccc(Cl)cc4Cl)O3)cc2)CC1 (stereo not shown) [ketoconazole],0.92
19,N=C(N)NC(=O)c1nc(Cl)c(N)nc1N [amiloride],0.4
20,O=C(O)c1cn(-c2ccc([N+](=O)[O-])cc2)c2cc(N3CCNCC3)c(F)cc2c1=O [7c(p-NO2)],0.3

# Same assay, conditions: fraction bound to plasma protein; small molecule dataset, sheet 1-SM, Set Dtr; ref Ingle et al.; cited from earlier work
row,Compound,PPB (fb)
1,Cc1ccccc1N1C(=O)c2cc(S(N)(=O)=O)c(Cl)cc2NC1C (stereo not shown) [Metolazone],0.95
2,Cc1ccc(-c2ncc(Cl)cc2-c2ccc(S(C)(=O)=O)cc2)cn1 [Etoricoxib],0.92
3,COc1cc(NS(C)(=O)=O)ccc1Nc1c2ccccc2nc2ccccc12 [Amsacrine],0.98
4,Cc1ccc(/C(=C\CN2CCCC2)c2ccccn2)cc1 [triprolidine],0.9
5,COc1ccc2c(c1)c(CC(=O)O)c(C)n2C(=O)c1ccc(Cl)cc1 [Indomethacin],0.97
6,CN/C(=N/CCSCc1nc[nH]c1C)NC#N [Cimetidine],0.2
7,CC(=O)NC[C@H]1CN(c2ccc(N3CCOCC3)c(F)c2)C(=O)O1 [Linezolid],0.31
8,CO/N=C(\C(=O)N[C@@H]1C(=O)N2C(C(=O)O)=CCS[C@H]12)c1csc(N)n1 [Ceftizoxime],0.28
9,CN(C)CCCN1c2ccccc2Sc2ccc(Cl)cc21 [Chlorpromazine],0.96
10,NC(=O)OC[C@@H]1[C@H](NC(=O)/C(=N\OCC(=O)O)c2csc(N)n2)C(=O)N1S(=O)(=O)O [Carumonam],0.28
11,O=c1[nH]cc(F)c(=O)[nH]1 [Fluorouracil],0.23
12,C[C@@H]1CC(=O)NN=C1c1ccc(NN=C(C#N)C#N)cc1 [Levosimendan],0.98
13,COc1ccc(Cl)cc1C(=O)NCCc1ccc(S(=O)(=O)NC(=O)NC2CCCCC2)cc1 [Glyburide],0.98
14,CN[C@@H]1[C@@H](O)[C@@H](O[C@@H]2[C@@H](O)[C@H](O[C@H]3O[C@H](CN)[C@@H](O)[C@H](O)[C@H]3O)[C@@H](N)C[C@H]2NC(=O)[C@@H](O)CN)OC[C@]1(C)O [Isepamicin],0.05
15,CO/N=C(\C(=O)N[C@@H]1C(=O)N2C(C(=O)O)=C(C)CS[C@H]12)c1csc(N)n1 [Cefetamet],0.22
16,CCC(=O)OCC(=O)[C@@]1(OC(=O)CC)[C@@H](C)C[C@H]2[C@@H]3CCC4=CC(=O)C=C[C@]4(C)[C@@]3(Cl)[C@@H](O)C[C@@]21C [Beclomethasone dipropionate],0.87
17,C#C[C@]1(O)CC[C@H]2[C@@H]3CCc4cc(O)ccc4[C@H]3CC[C@@]21C [Ethinylestradiol],0.97
18,CCCC(=O)Nc1ccc(OCC(O)CNC(C)C)c(C(C)=O)c1 (stereo not shown) [Acebutolol],0.24
19,O=C1CN(/N=C/c2ccc([N+](=O)[O-])o2)C(=O)N1 [Nitrofurantoin],0.73
20,CC(C)NCC(O)COc1ccc(CCOCC2CC2)cc1 (stereo not shown) [Betaxolol],0.56
21,CCN(CCO)CCCC(C)Nc1ccnc2cc(Cl)ccc12 (stereo not shown) [Hydroxychloroquine],0.46
22,Nc1ccc(S(=O)(=O)c2ccc(N)cc2)cc1 [Dapsone],0.75
23,CC(C)[C@H](N)C(=O)OCCOCn1cnc2c(=O)[nH]c(N)nc21 [valacyclovir],0.18

# Same assay, conditions: fraction bound to plasma protein; small molecule dataset, sheet 1-SM; ref Ingle et al.; cited from earlier work
row,Compound,PPB (fb)
1,CC(Oc1c(Cl)cccc1Cl)C1=NCCN1 (stereo not shown) [lofexidine],0.6
2,COc1c(C)c2c(c(O)c1C/C=C(\C)CCC(=O)O)C(=O)OC2 [mycophenolic acid],0.96
3,O=C(NCCNCC(O)COc1ccc(O)cc1)N1CCOCC1 (stereo not shown) [Xamoterol],0.03
4,CO[C@H]1C[C@@H]2CC[C@@H](C)[C@@](O)(O2)C(=O)C(=O)N2CCCC[C@H]2C(=O)O[C@H]([C@H](C)C[C@@H]2CC[C@@H](OCCO)[C@H](OC)C2)CC(=O)[C@H](C)/C=C(\C)[C@@H](O)[C@@H](OC)C(=O)[C@H](C)C[C@H](C)/C=C/C=C/C=C/1C [everolimus],0.74
5,CNC[C@H](O)c1ccc(O)c(O)c1 [epinephrine],0.5
6,CC1(C)S[C@@H]2[C@H](NC(=O)[C@H](C(=O)O)c3ccsc3)C(=O)N2[C@H]1C(=O)O [Ticarcillin],0.51
7,CN(CC1(C)CCCO1)S(=O)(=O)c1ccc(Cl)c(S(N)(=O)=O)c1 (stereo not shown) [mefruside],0.65
8,Cc1ccccc1C(OCCN(C)C)c1ccccc1 (stereo not shown) [orphenadrine],0.95
9,COC(C(=O)NC1C(=O)N2C1SC(C)(C)C2C(=O)O)c1cccc(Br)c1 (stereo not shown) [penicillin39],0.88
10,CNCC[C@H](Oc1cccc2ccccc12)c1cccs1 [Duloxetine],0.9
11,Cc1ccc(N(CC2=NCCN2)c2cccc(O)c2)cc1 [phentolamine],0.54
12,NC[C@H](O)c1ccc(O)c(O)c1 [norepinephrine],0.5
13,CN1CCOC(c2ccccc2)c2ccccc2C1 (stereo not shown) [nefopam],0.73
14,CCOC(=O)Nc1ccc2c(c1)N(C(=O)CCN1CCOCC1)c1ccccc1S2 [moracizine],0.88
15,Cc1ccccc1OCC(O)CNCCOc1ccc(C(N)=O)cc1 (stereo not shown) [Tolamolol],0.91
16,CC1(C)SC2C(NC(=O)C(Cl)c3ccc(Cl)cc3)C(=O)N2C1C(=O)O (stereo not shown) [penicillin24],0.94
17,OCCN1CCN(CCC=C2c3ccccc3Sc3ccc(C(F)(F)F)cc32)CC1 [flupenthixol],0.95
18,CCOC(=O)c1c(N)sc2c1CCN(Cc1ccccc1)C2 [Tinoridine],0.92
19,COc1ccccc1Oc1c(NS(=O)(=O)c2ccc(C(C)C)cn2)nc(-c2ccnc(-c3nnn[nH]3)c2)nc1OCCO [Tezosentan],0.99
20,COc1c2occc2cc2ccc(=O)oc12 [methoxsalen],0.83
21,Cn1nnc2c(C(N)=O)ncn2c1=O [temozolomide],0.15
22,CN(C)CC(c1ccc(O)cc1)C1(O)CCCCC1 (stereo not shown) [O-desmethylvenlafaxine],0.3
23,OC[C@H]1O[C@@H](n2cnc3c2NC=NC[C@H]3O)C[C@@H]1O [pentostatin],0.03
24,CN1C(=O)CC(c2ccccc2)C1=O (stereo not shown) [phensuximide],0.07
25,O=C1Cc2cc(CCN3CCN(c4nsc5ccccc45)CC3)c(Cl)cc2N1 [Ziprasidone],0.99
26,CN(C)CCc1c[nH]c2ccc(C[C@H]3COC(=O)N3)cc12 [Zolmitriptan],0.25

# Same assay, conditions: plasma; cited from earlier work
row,Compound,PPB (fb)
1,manidipine,0.99
2,CCN[C@@H](C)Cc1cccc(C(F)(F)F)c1 [Dexfenfluramine],0.34
3,CC(=O)[C@H]1CC[C@H]2[C@@H]3CC[C@@H]4C[C@H](O)CC[C@]4(C)[C@H]3CC[C@]12C [Eltanolone],0.99
4,dicoumarol,0.99
5,COc1ccc2c3c1O[C@H]1C(=O)CC[C@@]4(O)[C@@H](C2)N(C)CC[C@]314 [Oxycodone],0.45
6,O=C1CN=C(c2ccccc2)c2cc(Cl)ccc2N1CC1CC1 [prazepam],0.97
7,CNC(C)Cc1ccc2c(c1)OCO2 (stereo not shown) [methylenedioxymethamphetamine],0.65
8,CC(=O)OC1C(O)CC(OC2C(O)CC(OC3C(O)CC(OC4CCC5(C)C(CCC6C5CC(O)C5(C)C(C7=CC(=O)OC7)CCC65O)C4)OC3C)OC2C)OC1C (stereo not drawn) [beta-acetyldigoxin],0.15
9,CN1CCC[C@H]1c1cccnc1 [Nicotine],0.05
10,nitazoxanide,0.99
11,methacycline,0.84
